Data set [1] can be described thus: method code SF, from DOI: 10.1016/0048-3575(88)90017-x.
A short description of data set [2]: method code SF-RC, from Audran, M.; Chanal, J.; Berge, G.; Marignan, R. (1983). Binding-structure correlation of bovine serum albumin in a series of cresotinamides. International Journal of Pharmaceutics, 15(3)273-284. Particulars: pH 1.0.
The nature of data set [3]: method code SF-AS, from DOI: 10.1016/0006-2952(80)90068-4, PMID: 6775639.
A short description of data set [4]: method code SF-HPLC, from Peips, M.; Sikk, P.; Aaviksaar, A. (1986). Hydrophobic interaction in the active sites of serine proteases from thermoactinomycetes. Org. React., 23(3)261-271. Particulars: pH 2.2.
Data set [5] can be described thus: method code SF-AS, from DOI: 10.1016/s0021-9673(01)91572-9, PMID: 2376602. Particulars: pH 7.0.
Data set [6] in a line: method code SF-HPLC, from DOI: 10.1016/0378-5173(86)90071-2. Particulars: pH 7.4.
Data set [7] in a line: method code SF, from DOI: 10.1016/s0378-5173(98)00231-2.
Assay in data set [8]: not given
This is another data set of the same source.

Data set [9] is described as follows: method code SF, from DOI: 10.1016/j.bmcl.2006.04.097, PMID: 16714112.
A short description of data set [10]: method code SF-HPLC, from DOI: 10.1248/cpb.41.694.
Data set [11] in a line: method code SF-CR+DM, from DOI: 10.1021/ja01573a017. Particulars: pH 6.5.
The nature of data set [12]: method code SF-HPLC, from DOI: 10.1023/a:1015862319927, PMID: 2062808. Conditions: pH 7.4.
Data set [13] is described as follows: method code SF, from DOI: 10.1080/09553008714551831, PMID: 3497891. Particulars: pH 7.4.
The nature of data set [14]: method code SF-AS, from DOI: 10.1021/jm00075a005, PMID: 8246220. Conditions: pH 7.4.
Data set [15] in a line: method code SF-AS, from DOI: 10.1021/jm00297a026, PMID: 5441130.
Assay in data set [16]: not given
This is another data set of the same source.

Data set [17] in a line: method code SF-HPLC, from DOI: 10.1016/0378-5173(87)90096-2. Conditions: pH 8.0.
Data set [18] can be described thus: method code SF, from DOI: 10.3109/00498258709043934, PMID: 3564538.
The nature of data set [19]: method code SF-AS, from DOI: 10.1021/acs.inorgchem.5b01238, PMID: 26280387.
The nature of data set [20]: method code SF, from DOI: 10.1021/bk-1995-0606.ch004.
Data set [21] is described as follows: method code SF-HPLC, from DOI: 10.1007/s00216-006-0868-5, PMID: 17082876.
A short description of data set [22]: method code SF-GLC, from DOI: 10.1016/j.chemosphere.2004.08.061, PMID: 15519382.
Data set [23] in a line: method code SF-AS, from DOI: 10.1016/0005-2728(86)90252-5, PMID: 3015209. Particulars: pH 7.2.
A short description of data set [24]: from Dutta, H.; Mehta, N.; SenGupta, M.; Pal, D.; Sengupta, C.; De, A. (1988). Dioxanide furoate: studies on its interaction with blood phospholipid in relation to partition coefficients of related drugs. ….
Data set [25] can be described thus: method code SF, from DOI: 10.1002/1522-2675(20001004)83:10<2836::aid-hlca2836>3.0.co;2-g. Conditions: pH 12.5.

Usually logP stands for a log measure of how a compound divides between an organic and an aqueous phase. A high value points to higher lipophilicity. In turn, `CC(=O)OCN1C(=O)C(C)=C(C)C1=O` returned a lipophilicity (logP) in [1] of 0.65.
The term logD denotes lipophilicity at a set pH, counting ionised and neutral species. Read a low logD as a more hydrophilic compound. With `CCCCNC(=O)c1cc(Br)cc(C)c1O`, in data set [2], the logD turned out to be 4.21.
Consider `CC1=C(C)C(=O)C(C)=C(C)C1=O`, for which the lipophilicity (logP) in data set [3] was determined as 2.12.
In data set [4], `CCCCCC(NC(C)=O)C(=O)OC` (stereo not given) yielded a pH-dependent lipophilicity (logD) of 1.28.
With `Nc1nc(=O)n([C@H]2CC[C@@H](CO)O2)cc1F`, the logD in data set [5] was -1.05.
`CNCc1ccc(C)cc1`: the logP turned out to be 1.96.
The molecule `CC(=O)OCOc1ccccc1C(N)=O` showed a log distribution coefficient (logD) in data set [6] of 0.52.
For `OCCCCCc1ccccc1`, in data set [7], the logP was 2.89.
The molecule `CNc1ccc(C)cc1` had a logP in data set [8] of 2.15.
Molecule `COC(=O)[C@H](Cc1ccccc1)NC(C)=O` returned a logD in data set [4] of 0.92.
The molecule `Cc1cccc(C)c1C1=NCCO1` registered a lipophilicity (logP) in data set [9] of 2.21.
In turn, `CN(C)C(=O)OCc1ccc(C(N)=O)cc1` displayed a log partition coefficient (logP) in data set [10] of 0.77.
In [11], `Oc1ccc(Cl)c2ccccc12` registered a log distribution coefficient (logD) of 4.1.
Regarding `CCC(=O)OCC1OC(n2cc(I)c(=O)[nH]c2=O)CC1O` (stereo not given), the logD in data set [12] worked out at 0.68.
`O=C1C(c2[nH]c3ccc(S(=O)(=O)O)cc3c2O)=Nc2ccc(S(=O)(=O)O)cc21` had a logP in data set [3] of -2.
Consider `CC(OCC=CCO)N1C=CNC1[N+](=O)[O-]` (stereo not given), for which the logD in data set [13] was -0.28.
`CC1=CC(=O)C(C)=C(C)C1=O`: the logP in data set [3] amounted to 1.47.
For the molecule `CON1C(=O)CC2(CCCC2)C1=O`, the logD in data set [14] stood at 1.15.
With `CCC(O)Cn1cnc2c(N)ncnc21` (stereo not given), the lipophilicity (logP) in data set [15] was found to be 0.14.
`Ic1ccccc1C1=NCCO1` yielded a logP in data set [9] of 2.3.
In data set [13], `COC(=O)C(=Cc1cnc(S(C)(=O)=O)n1C)C(=O)OC` came in with a logD of 0.49.
In turn, `Nc1ccn([C@@H]2C=C(CO)[C@@H](O)[C@H]2O)c(=O)n1` yielded a logD in data set [5] of -2.3.
As to `Cc1ccc(NC(=O)c2ccco2)c(O)c1`, the log distribution coefficient (logD) in [11] turned out to be 2.84.
Regarding `CC(=O)C=Cc1ccccc1`, the logP in data set [16] was determined as 2.13.
In turn, `NC(=O)CCCc1cccnc1` registered a logD in data set [17] of 0.07.
`CCCCC(CO)n1cnc2c(N)ncnc21` (stereo not given) gave a logP in data set [15] of 1.16.
In the case of `CCNc1ccccc1`, the logP in [8] worked out at 2.16.
In [16], `CC(C)(C)NCC(O)COc1cccc2c1C[C@H](O)[C@H](O)C2` (stereo not given in full) yielded a log partition coefficient (logP) of 1.27.
With `FC(F)(F)c1ccccc1C1=NCCO1`, the logP in data set [9] came out at 2.15.
In turn, `CCCOC(=O)C(C(=O)OCCC)=C1SC=CS1` had a log partition coefficient (logP) in data set [18] of 3.93.
For `Cc1cc(Br)cc(C(=O)NC2CC2)c1O`, the logD in data set [2] amounted to 3.8.
For `CSC(=S)C=C(O)c1ccc(O)cc1`, the log partition coefficient (logP) in data set [19] is 1.9.
`CC(=O)OCN1Cc2ccccc2C1=O`: the logP in data set [1] was 0.99.
`CC(=O)OCN1C(=O)c2ccccc2C1=O` gave a lipophilicity (logP) in [1] of 1.15.
For `CCOP(=O)(Oc1ccc(C#N)cc1)c1ccccc1` (stereo not given), in data set [20], the logP is 2.44.
For `CSc1ccc(COC(=O)N(C)C)cc1`, the logP in data set [10] amounted to 2.86.
The molecule `O=C1CC2(CCCC2)C(=O)N1OCc1ccc(Cl)cc1` returned a pH-dependent lipophilicity (logD) in data set [14] of 2.53.
Turning to `O=C1CC2(CCCC2)C(=O)N1OCc1ccccc1`, in data set [14], the logD came to 2.3.
`CC(=O)CC(=O)Nc1ccccc1` displayed a lipophilicity (logP) in data set [21] of 1.04.
Turning to `Cn1c(Cl)c(Cl)c(Br)c1-c1c(Br)c(Br)c(Cl)n1C`, the logP in [22] came out at 6.5.
Take `Cc1ccc(C)c(NN=C(C#N)C#N)c1`: the logD in data set [23] was found to be 2.6.
`CCCCCn1cnc2c(N)ncnc21` registered a logP in data set [15] of 1.79.
Molecule `Cn1c(Br)c(Br)c(Br)c1-c1c(Br)c(Br)c(Br)n1C` came in with a log partition coefficient (logP) in data set [22] of 6.7.
For `OCCCc1ccccc1`, the lipophilicity (logP) in data set [7] is 1.83.
`CCCCC(NC(C)=O)C(=O)OC` (racemic) gave a logD in data set [4] of 0.79.
As to `CN(C)C(=O)OCc1cccc([N+](=O)[O-])c1`, the log partition coefficient (logP) in [10] is 1.98.
`CSC(=S)C=C(O)c1cccc(O)c1` gave a logP in [19] of 1.71.
For `OCCCCCCc1ccccc1`, in [7], the log partition coefficient (logP) turned out to be 3.29.
In the case of `O=c1[nH]c(=O)n([C@H]2C[C@H](O)[C@@H](CO)O2)cc1I`, the pH-dependent lipophilicity (logD) in data set [12] was -0.95.
In [24], `CN(C(=O)C(Cl)Cl)c1ccc(O)cc1` registered a logP of 1.78.
Take `CC(C)(C)C(=O)OCOc1ccccc1C(N)=O`: in [6], the logD was 2.
Molecule `COP(=O)(OC)Oc1ccc(C#N)cc1` came in with a logP in data set [20] of 0.84.
As to `N#CC(C#N)=NNc1c(Cl)cccc1Cl`, the pH-dependent lipophilicity (logD) in [23] came out at 2.01.
Molecule `CNC(=O)c1cc(Br)cc(C)c1O` registered a logD in [2] of 3.51.
Take `Cc1cc([N+](=O)[O-])ccc1NN=C(C#N)C#N`: the logD in [23] is 1.85.
`CC(C)OC(=O)C(C(=O)OC(C)C)=C1SC=CS1` returned a logP in data set [18] of 3.75.
In data set [24], `CC(=O)Oc1ccc(N(C)C(=O)C(Cl)Cl)cc1` came in with a logP of 1.56.
Turning to `Nc1ncnc2c1ncn2C1C=C(CO)C(O)C1O` (stereo not given), the pH-dependent lipophilicity (logD) in data set [5] is -1.3.
The molecule `CC(=O)Oc1ccc(NC(=O)C(Cl)Cl)cc1` displayed a log partition coefficient (logP) in data set [24] of 1.9.
On to `Cc1ccc(NC(=O)c2ccccc2)c(O)c1`, for which, in [11], the logD was determined as 3.08.
On to `CCSC(=S)C=C(O)c1cccc(O)c1`, for which the log partition coefficient (logP) in data set [19] came out at 1.73.
The molecule `COP(=O)(OC)Oc1c(Cl)cc(C)cc1Cl` returned a lipophilicity (logP) in data set [20] of 2.66.
Take `c1ccc2c(c1)CCCN2`: the logP in data set [8] came out at 2.29.
`CCCCCNCc1ccc(C)cc1` yielded a log partition coefficient (logP) of 4.26.
`COC(=O)C(=Cc1cnc(S(C)=O)n1C)C(=O)OC` (stereo not given) showed a logD in data set [13] of -0.43.
Consider `CCCNCc1ccc(C)cc1`, for which the logP came out at 2.96.
In data set [22], `Cn1c(Cl)c(Br)c(Br)c1-c1c(Br)c(Br)c(Br)n1C` had a logP of 6.6.
In turn, `COCCc1ccc(OCC(O)CNC(C)C)cc1` (stereo not given) showed a log partition coefficient (logP) in data set [16] of 1.65.
Regarding `CCCC(=O)OCOc1ccccc1C(N)=O`, the logD in data set [6] stood at 1.66.
Molecule `O=C(OC[C@H]1O[C@@H](n2cc(I)c(=O)[nH]c2=O)C[C@@H]1O)c1ccccc1` had a pH-dependent lipophilicity (logD) in data set [12] of 1.4.
As to `NC(=O)CCCCc1ccccn1`, the log distribution coefficient (logD) in data set [17] amounted to 0.4.
In [25], `Cc1ccc(CN)cc1` returned a logD of 1.58.
In turn, `NC(=O)CCCc1ccncc1` showed a logD in data set [17] of 0.06.
In data set [21], `O=S1(=O)OC(c2cc(Br)c(O)c(Br)c2)(c2cc(Br)c(O)c(Br)c2)c2ccccc21` came in with a logP of 4.88.
Still for that read-out and setting: the result for `N=C(Nc1ccccc1)Nc1ccccc1` reads 2.85.
